Assay results reported in the supplement of paper PMC10307832.

Key:
Assay in all cases: relative viability (nuclei count vs DMSO), 5 days (fraction); higher = more cells survive
Pazopanib + OSI-027 = compound: Cc1ccc(Nc2nccc(N(C)c3ccc4c(C)n(C)nc4c3)n2)cc1S(N)(=O)=O [Pazopanib] + COc1cccc2cc(-c3nc([C@H]4CC[C@H](C(=O)O)CC4)n4ncnc(N)c34)[nH]c12 [OSI-027] (partner 0.5 µM)
Method in brief: (§1)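 For relative viability, nuclei counts in treated wells were divided by those in vehicle wells. Lung cancer cell lines had been pin-tool dosed in 1536-well plates the day after seeding and cultured for 5 days, then fixed and stained in one step (final 0.05% Triton X-100, 1% formaldehyde, 1 ug/ml Hoechst) and imaged at 4×. Doses were one drug alone or a fixed anchor-drug dose plus five library-drug doses (not always all listed) in √10 steps, and values are duplicate-plate medians.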

Ponatinib + Lapatinib = compound: Cc1ccc(C(=O)Nc2ccc(CN3CCN(C)CC3)c(C(F)(F)F)c2)cc1C#Cc1cnc2cccnn12 [Ponatinib] + CS(=O)(=O)CCNCc1ccc(-c2ccc3ncnc(Nc4ccc(OCc5cccc(F)c5)c(Cl)c4)c3c2)o1 [Lapatinib] (partner 2 µM)
Method in brief: as §1

Ponatinib + Foretinib = compound: Cc1ccc(C(=O)Nc2ccc(CN3CCN(C)CC3)c(C(F)(F)F)c2)cc1C#Cc1cnc2cccnn12 [Ponatinib] + COc1cc2c(Oc3ccc(NC(=O)C4(C(=O)Nc5ccc(F)cc5)CC4)cc3F)ccnc2cc1OCCCN1CCOCC1 [Foretinib] (partner 0.25 µM)
Method in brief: as §1

Pazopanib + Olaparib = compound: Cc1ccc(Nc2nccc(N(C)c3ccc4c(C)n(C)nc4c3)n2)cc1S(N)(=O)=O [Pazopanib] + O=C(c1cc(Cc2n[nH]c(=O)c3ccccc23)ccc1F)N1CCN(C(=O)C2CC2)CC1 [Olaparib] (partner 8 µM)
Method in brief: as §1

Row | Cell Line | relative viability (Pazopanib + OSI-027; first compound 0.01 µM) | relative viability (Pazopanib + OSI-027; first compound 0.03162 µM) | relative viability (Pazopanib + OSI-027; first compound 0.1 µM) | relative viability (Pazopanib + OSI-027; first compound 0.3162 µM) | relative viability (Pazopanib + OSI-027; first compound 1 µM) | relative viability (Ponatinib + Lapatinib; first compound 0.002 µM) | relative viability (Ponatinib + Lapatinib; first compound 0.006325 µM) | relative viability (Ponatinib + Lapatinib; first compound 0.06325 µM) | relative viability (Ponatinib + Lapatinib; first compound 0.2 µM) | relative viability (Ponatinib + Foretinib; first compound 0.002 µM) | relative viability (Ponatinib + Foretinib; first compound 0.006325 µM) | relative viability (Ponatinib + Foretinib; first compound 0.06325 µM) | relative viability (Ponatinib + Foretinib; first compound 0.2 µM) | relative viability (Pazopanib + Olaparib; first compound 0.01 µM) | relative viability (Pazopanib + Olaparib; first compound 0.03162 µM) | relative viability (Pazopanib + Olaparib; first compound 0.1 µM) | relative viability (Pazopanib + Olaparib; first compound 0.3162 µM) | relative viability (Pazopanib + Olaparib; first compound 1 µM)
1 | NCI-H322M | 0.531 | 0.646 | 0.533 | 0.636 | 0.607 | 0.636 | 0.61 | 0.659 | 0.518 | 0.956 | 0.976 | 1.02 | 0.814 | 0.885 | 0.817 | 0.881 | 0.71 | 0.71
2 | NCI-H358 | 0.843 | 0.999 | 0.828 |  | 1.03 | 0.468 | 0.431 | 0.393 | 0.378 | 0.734 | 0.731 | 1.02 | 0.784 | 0.757 | 0.662 | 0.629 | 0.639 | 0.599
3 | NCI-H460 | 0.601 | 0.912 | 0.645 | 0.665 | 0.725 | 0.942 | 0.853 | 1.08 | 0.876 | 0.92 | 0.938 | 1 | 0.967 | 0.51 | 0.413 | 0.572 | 0.406 | 0.409
4 | NCI-H520 | 0.271 | 0.268 | 0.259 | 0.301 | 0.262 | 0.725 | 0.801 | 0.688 | 0.531 | 0.628 | 0.786 | 0.496 | 0.596 | 0.38 | 0.277 | 0.414 | 0.348 | 0.285
5 | NCI-H596 |  | 0.74 | 0.568 | 0.879 | 0.632 | 1.09 | 0.898 | 0.905 | 0.748 | 0.732 | 0.753 | 0.851 | 0.721 | 0.674 | 0.661 | 0.676 | 0.749 | 0.629
6 | NCI-H647 | 0.594 | 0.688 | 0.723 | 0.902 | 0.739 | 0.99 | 0.995 | 1.11 | 0.811 | 1.12 | 1.01 | 1.24 | 1.08 | 0.717 | 0.714 | 0.803 | 0.486 | 0.474
7 | NCI-H650 | 0.464 | 0.523 | 0.517 | 0.544 | 0.482 | 0.886 | 0.835 | 0.819 | 0.854 | 0.968 | 1.03 | 1.02 | 0.884 | 0.404 | 0.411 | 0.394 | 0.391 | 0.37
8 | NCI-H661 | 0.669 | 0.784 | 0.745 | 0.689 | 0.735 | 0.437 | 0.523 | 0.592 | 0.361 | 1.03 | 0.98 | 0.993 | 0.998 | 0.781 | 0.782 | 0.792 | 0.691 | 0.71
9 | NCI-H727 | 0.462 | 0.561 | 0.545 | 0.505 | 0.574 | 0.794 | 0.825 | 1.11 | 0.77 | 0.781 | 0.839 | 0.64 | 0.869 | 0.672 |  | 0.595 | 0.612 | 0.629
10 | NCI-H838 | 0.435 | 0.488 | 0.373 | 0.42 | 0.555 | 0.911 | 1.04 | 1.03 | 0.813 | 1.02 | 1.03 | 1.05 | 0.955 | 0.745 | 0.843 | 0.776 | 0.816 | 0.82
11 | NCI-H1355 | 0.37 | 0.441 | 0.396 | 0.423 | 0.477 | 0.939 | 0.947 | 1.17 | 1.02 | 0.988 | 0.943 | 1.1 | 0.971 | 0.716 | 0.708 | 0.76 | 0.761 | 0.754
12 | NCI-H1395 | 0.606 | 0.741 | 0.605 | 0.616 | 0.706 |  | 0.888 | 0.782 | 0.753 | 0.903 | 0.996 | 0.945 | 0.904 | 0.428 | 0.44 | 0.461 | 0.446 | 0.473
13 | NCI-H1437 | 0.901 | 0.879 | 0.998 | 0.907 | 1.05 | 0.742 | 0.848 | 0.885 | 0.758 | 1.22 | 1.22 | 1.31 | 1.28 | 0.644 | 0.645 | 0.649 | 0.653 | 0.551
14 | NCI-H1650 | 0.727 | 0.759 | 0.744 | 0.803 | 0.699 | 0.735 | 0.811 | 0.636 | 0.62 | 1.36 | 1.07 | 1.55 | 1.31 | 0.895 | 0.838 | 0.723 | 0.852 | 0.844
15 | NCI-H1651 | 0.66 | 0.742 | 0.728 | 0.715 | 0.871 | 0.724 | 0.955 | 0.896 | 0.756 | 0.765 | 0.777 | 0.888 | 0.814 | 0.18 | 0.192 | 0.176 | 0.202 | 0.188
16 | NCI-H1666 | 0.86 | 0.953 | 0.882 | 0.866 | 0.948 | 0.619 | 0.666 | 0.796 | 0.773 | 0.967 | 0.988 | 1.06 | 0.886 | 0.819 | 0.874 | 0.74 | 0.649 | 0.769
17 | NCI-H1734 | 0.56 | 0.555 | 0.558 | 0.567 | 0.605 | 0.955 | 0.991 | 1.09 | 0.888 | 0.73 | 0.895 | 0.821 | 0.809 | 0.626 | 0.627 | 0.578 | 0.598 | 0.591
